≈ marks a conversion by molar mass, not a printed value. Like-named read-outs stand apart in the source and are kept apart here. Marks after values point to notes of the source that are not given here.
Experiments:
MbtAtb = MbtAtb (Mycobacterium tuberculosis (strain ATCC 25618 / H37Rv), UniProt P71716); conditions: cited from earlier work
Msm ΔE = assay type: cell-based, Mycobacterium smegmatis
Msm WT = assay: Growth inhibition microdilution assay, Msm WT; assay type: cell-based, Mycobacterium smegmatis
M. smegmatis ΔEM-pMbtAtb [1] = assay: Post-antibiotic effect (PAE) washout assay
Experimental: Cells from mid-log growth phase cultures of Msm ΔEM-pMbtAtb in GASTD medium (37° C., 170 rpm, OD600≈0.75) were harvested by centrifugation and washed in GASTD medium (3 times with I culture volume). The washed cells were resuspended in GASTD medium and transferred to U-bottom 96-well cell culture plates (Corning, Inc.) for inhibitor exposure at a cell density corresponding to OD600=1.0 (50 μL/well). […] Inhibitors were added from 10% DMSO stock solutions, with a final DMSO concentration of 1% in both inhibitor-exposed cultures and DMSO controls (no inhibitor). […] The 96-well plates were incubated for culture growth at 37° C. in a FLUOstar Optima microplate reader (BMG Labtech, Inc.), and OD600 readings were taken every 30 min following plate shaking (5 min, 200 rpm) for 5 days. The growth vs. time datasets were analyzed to determine the time at which cultures reached an exponential growth phase threshold of OD600=0.05 (≈5% of maximal growth) (FIG. 8). The time-to-threshold data were used to calculate PAE as the difference between the time-to-threshold values of the inhibitor-exposed culture and the control cultures (Stubbings, W. J., et al. (2004) J. Antimicrob. Chemother. 54, 139-143). Data presented are derived from three independent experiments.

M. tuberculosis H37Rv = assay: Growth inhibition assay (Alamar Blue MIC) for M. tuberculosis H37Rv; assay type: cell-based, Mycobacterium tuberculosis; conditions: at least 90% inhibition, 7 days
Msm ΔM = assay type: cell-based, Mycobacterium smegmatis
M. smegmatis ΔEM-pMbtAtb [2] = assay: microbe, parasite or virus in culture; assay type: cell-based, Mycobacterium smegmatis; conditions: for MIC (μg/ml), mean / MIC (μg/ml), range: GASTD medium, three independent experiments
mammalian cells = conditions: cited from earlier work
Msm ΔEM = assay type: cell-based, Mycobacterium smegmatis; conditions: GASTD + Fe medium
[3] = system: MBT production in Msm ΔEM-pMbtAtb; assay type: cell-based, Mycobacterium smegmatis; conditions: FIG. 7, radio-TLC
Mtb = conditions: cited from earlier work
H10MbtA^opt (MbtAtb) [4] = target: T1, H10MbtA^opt (MbtAtb) (Mycobacterium tuberculosis (strain ATCC 25618 / H37Rv), UniProt P71716); assay: biochemical
H10MbtA^opt (MbtAtb) [5] = target: T1, H10MbtA^opt (MbtAtb); assay: Progress curve analysis of H10MbtA^opt inhibition (HA-MesG assay); assay type: biochemical
PPT/PNP coupling system = assay: Off-target control: effect on PPT/PNP coupling system of the HA-MesG assay; assay type: biochemical
Experimental: The adenylation activity of H10MbtA^opt and its inhibition were evaluated using a H10MbtA^opt-optimized variation of the hydroxylamine-7-methyl-6-thioguanosine (HA-MesG) spectrophotometric assay (Wilson, D. J., et al. (2010) Anal. Biochem. 404, 56-63). The assay was carried out in a 96-well plate format as previously reported (Davis, T. D., et al. (2016) Bioorg. Med. Chem. Lett. 26, 5340-5345). The assay reaction mixture was optimized for H10MbtAopt activity. Optimization experiments included evaluation of various concentrations of Tris·HCl (and pH), hydroxylamine, MesG, ATP, NaCl, MgCl2, glycerol, reducing agents (DTT and TCEP), and detergent (IGEPAL, CHAPS, and Triton-X100). Unless otherwise indicated for specific experiments, the optimized assay reaction mixture contained the following: 50 mM Tris·HCl, pH 8.0; 3 mM MgCl2; 0.5 mM DTT; 0.1 U purine nucleoside phosphorylase (PNP); 0.04 U inorganic pyrophosphatase (PPT); 450 mM hydroxylamine; 0.4 mM MesG; 1 mM ATP; 300 μM salicylic acid; 0.01% CHAPS buffer; 7.5% ultrapure glycerol; and H10MbtA^opt at concentrations noted for specific experiments. […] Reactions were preincubated for 10 min at 25° C. before being initiated by the addition of either salicylic acid for steady state kinetic analysis or H10MbtA^opt for progress curve analysis. The phosphorolysis of MesG was measured continuously at either regular 1-min intervals (for steady state kinetic analysis) or 25-sec intervals (for progress curves analysis) for up to 45 min, at 360 nm and 25° C. in a DTX 880 multimode detector microplate reader (Beckman Coulter, Inc.).

[6] = Table 8, GASTD + Fe medium, tested up to 64 μg/mL
[7] = IC50 (nM), H10MbtA^opt at 250 nM, two independent dose-response experiments
[8] = IC50, preliminary dose-response experiment (vi/vo vs. log[inhibitor]), FIG. 4A-C, single experiment, inhibition of H10MbtA^opt
[9] = Mycolicibacterium smegmatis, read-out: MIC (μg/ml), mean

T1 sequence (P71716 whole entry, added parts left off): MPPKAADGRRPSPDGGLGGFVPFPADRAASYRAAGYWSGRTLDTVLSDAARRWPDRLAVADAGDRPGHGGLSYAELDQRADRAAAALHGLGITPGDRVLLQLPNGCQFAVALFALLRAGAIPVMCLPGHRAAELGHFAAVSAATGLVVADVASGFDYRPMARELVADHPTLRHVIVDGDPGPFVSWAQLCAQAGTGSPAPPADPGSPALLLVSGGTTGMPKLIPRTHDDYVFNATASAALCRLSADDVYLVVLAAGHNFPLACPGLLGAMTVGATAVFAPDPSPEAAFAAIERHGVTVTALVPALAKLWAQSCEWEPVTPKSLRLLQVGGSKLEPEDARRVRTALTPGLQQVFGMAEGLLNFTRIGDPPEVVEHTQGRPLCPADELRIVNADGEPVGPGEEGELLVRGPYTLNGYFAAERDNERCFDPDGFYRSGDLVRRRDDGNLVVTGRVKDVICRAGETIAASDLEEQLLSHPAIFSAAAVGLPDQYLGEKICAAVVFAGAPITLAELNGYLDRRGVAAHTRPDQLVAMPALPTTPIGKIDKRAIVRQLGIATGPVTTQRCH
Sequence of MbtAtb (P71716 whole entry, looked up): as the sequence (P71716 whole entry, added parts left off) above

Molecule | PAE (M. smegmatis ΔEM-pMbtAtb [1]; 1 h exposure at 5 × MIC) | PAE (M. smegmatis ΔEM-pMbtAtb [1]; 1 h exposure at 50 × MIC) | PAE (M. smegmatis ΔEM-pMbtAtb [1]; 1 h exposure at 100 × MIC) | MIC (M. smegmatis ΔEM-pMbtAtb [2]; [6]) | MIC (μg/ml), mean (M. smegmatis ΔEM-pMbtAtb [2]; Table 8) | MIC (μg/ml), range (M. smegmatis ΔEM-pMbtAtb [2]; Table 8) | Fractional velocity v1/v0 (PPT/PNP coupling system; [inhibitor] = 4 μM) | Fractional velocity v1/v0 (PPT/PNP coupling system; [inhibitor] = 40 µM) | IC50 (H10MbtA^opt (MbtAtb) [4]; [7]) | IC50 (H10MbtA^opt (MbtAtb) [4]; [8]) | Ki (H10MbtA^opt (MbtAtb) [5]) | MIC (M. smegmatis ΔEM-pMbtAtb [2]; [9]) | also measured
5′-O—[N-salicylsulfamoyl]adenosine [compound 1] | 9.4 ± 1.6 h | 14.2 ± 0.9 h | 34.5 ± 1.8 h | >64 µg/mL | 0.83 ± 8.17 µg/mL | 0.5-1.0^b μg/ml |  |  |  |  |  |  | Inhibition of MbtAtb (previous in vitro studies) (MbtAtb): potent, selective, tight-binding inhibitor; MIC (Msm ΔE; GASTD + Fe medium): >1000 µg/mL; MIC (Msm ΔE; GASTD medium (Fe-limiting)): 0.5 to 1.0 µg/mL; MIC (Msm WT; GASTD + Fe medium): >1000 µg/mL; MIC (Msm WT; GASTD medium (Fe-limiting)): >1000 µg/mL; MIC (M. tuberculosis H37Rv; GAST-D + Fe medium (100 μM FeCl3)): 0.5 to 1.0 µg/mL; MIC (M. tuberculosis H37Rv; GAST-D medium): 0.125 to 0.25 µg/mL; MIC (Msm ΔM; GASTD + Fe medium): >1000 µg/mL; MIC (Msm ΔM; GASTD medium (Fe-limiting)): >1000 µg/mL; MIC (M. smegmatis ΔEM-pMbtAtb [2]; Table 7, Msm ΔEM-pMbtAtb (−/+), GASTD + Fe medium): >1000 µg/mL; MIC (M. smegmatis ΔEM-pMbtAtb [2]; Table 7, Msm ΔEM-pMbtAtb (−/+), GASTD medium (Fe-limiting)): 0.5 to 1.0 µg/mL; Cytotoxicity against mammalian cells (mammalian cells): not cytotoxic; MIC (Msm ΔEM): >1000 µg/mL; Effect on MBT production [3]: inhibited MBT production; Mtb growth in the mouse lung (Mtb; monotherapy at 5.6 or 16.7 mg/kg): significant reduction of Mtb growth in the mouse lung; Dose at which in vivo toxicity was observed (Mtb; mouse): ≥ 16.7 mg/kg
Nc1ncnc2c1ncn2[C@@H]1OC(CNS(=O)(=O)NC(=O)c2ccccc2O)[C@@H](O)[C@H]1O (some centres unmarked) [4a, salicyl-AMSN] | 10.6 ± 2.7 h | 18.7 ± 1.3 h | 23.1 ± 3.1 h | >64 µg/mL | 1.00 ± 0 µg/mL (≈ 2.15 µM) | 1.0 µg/mL (≈ 2.15 µM) | 0.94 | 0.96 |  |  |  |  | IC50 (H10MbtA^opt (MbtAtb) [4]; H10MbtA^opt at 250 nM, two independent dose-response experiments, read-out: IC50): 246 ± 2.9 nM; Ki (H10MbtA^opt (MbtAtb) [5]; H10MbtA^opt 1 μM, inhibitor 4,000-1,041 nM, minimum of five independent experiments, read-out: Ki^app): 295 ± 23.9 nM
CN(C[C@H]1O[C@@H](n2cnc3c(N)ncnc32)[C@H](O)[C@@H]1O)S(=O)(=O)NC(=O)c1ccccc1O [4b, N—(N-(((2R,3S,4R,5R)-5-(6-Amino-9H-purin-9-yl)-3,4-dihydroxytetrahydrofuran-2-yl)-methyl)-N-methylsulfamoyl)-2-hydroxybenzamide] | 13.4 ± 2.6 h | 17.4 ± 4.7 h | 10.4 ± 2.2 h |  |  | 0.5 to 1.0 µg/mL |  |  | 175 ± 4.3 nM | 179 nM | 159 ± 8.1 nM | 0.83 ± 0.17 µg/mL (≈ 1.73 µM) | 
COc1ncnc2c1ncn2[C@@H]1O[C@H](CNS(=O)(=O)NC(=O)c2ccccc2O)[C@@H](O)[C@H]1O [compound 6, N—(N-(((2R,3S,4R,5R)-3,4-Dihydroxy-5-(6-methoxy-9H-purin-9-yl)tetrahydrofuran-2-yl)methyl)sulfamoyl)-2-hydroxybenzamide] |  |  |  | >64 µg/mL |  | 4.0 to 8.0 µg/mL | 1.00 | 1.00 | 289 ± 16.4 nM | 273 nM | 277 ± 12.2 nM | 5.33 ± 1.33 µg/mL (≈ 11.1 µM) | Inhibitor behavior (IC50≈½ [E]) (H10MbtA^opt (MbtAtb) [4]; HA-MesG assay): tight-binding inhibitor behavior; Mechanism of inhibition from progress curves (H10MbtA^opt (MbtAtb) [5]; time-dependent inhibition of H10MbtAopt): slow-onset inhibitors; MIC (M. tuberculosis H37Rv; Mycobacterium tuberculosis, H37RV, 168 h, GAST-D + Fe medium (100 μM FeCl3), read-out: MIC): 0.5 to 1 µg/mL; MIC (M. tuberculosis H37Rv; Mycobacterium tuberculosis, H37RV, 168 h, GAST-D medium, read-out: MIC): 0.125 to 0.25 µg/mL (≈ 0.26 to 0.52 µM)
O=C(NS(=O)(=O)O)c1ccccc1O [compound 8, salicyl-sulfamate] |  |  |  |  |  |  |  |  |  |  |  |  | IC50 (H10MbtA^opt (MbtAtb) [4]; IC50 (mM), effect on the MbtAtb-dependent signal in the HA-MesG assay, salicyl-AMS fragments, nonspecific inhibition control): ~1e+06 nM

From patent publication US12435088B2, “Salicyl-adenosinemonosulfamate analogs and uses thereof” (priority 2018, dated 2025)
